Earlier results as cited in patent US6013636A, “Anthelmintic macrocyclic lactone compositions” (Ashmont Holdings Limited, priority 1995, dated 2000).

Columns and labels:
[1] = sesame oil, soya bean oil and corn oil

Row | Stability in water | Solubility in oils [1] | Molecule
1 | oxidise and break down in water | sparingly soluble | CO[C@H]1C[C@H](O[C@H]2[C@H](C)O[C@@H](O[C@@H]3/C(C)=C/C[C@@H]4C[C@@H](C[C@]5(C=C[C@H](C)[C@@H](C6CCCCC6)O5)O4)OC(=O)[C@@H]4C=C(C)[C@@H](O)[C@H]5OC/C(=C\C=C\[C@@H]3C)[C@]54O)C[C@@H]2OC)O[C@@H](C)[C@@H]1O [doramectin]
2 | oxidise and break down in water | sparingly soluble | CO/N=C1\C[C@]2(C[C@@H]3C[C@@H](C/C=C(\C)C[C@@H](C)/C=C/C=C4\CO[C@@H]5[C@H](O)C(C)=C[C@@H](C(=O)O3)[C@]45O)O2)O[C@H](/C(C)=C/C(C)C)[C@H]1C [moxidectin]

Row | Molecule | Stability in water | Solubility in oils [1]
3 | ivermectin | oxidise and break down in water | sparingly soluble
